These results are taken from patent US20090176817A1, “Method of Treatment of Diarrhea-Predominant Irritable Bowel Syndrome in a Subject” (priority 2005, published 2009).

One series in a line: clinical. As to conditions: both, human, in vivo, 2 mg.
Series [1] deals with diarrhea-predominant IBS subjects. In words: Study S241.3.011: safety. It is filed as in vivo, human. From the text:
The primary efficacy parameter was the number of months that a subject was a responder for IBS symptoms (abdominal pain, abdominal discomfort, abnormal bowel habits) over the 12-week treatment period. A responder for a month (monthly responder) was defined as a subject who answered the weekly question with “yes” at least twice for that month. The two main secondary efficacy parameters were the monthly responder rates based on the “adequate relief” questions regarding abdominal pain/discomfort and abnormal bowel habits during the 12-week treatment period. The overall response rate and responder rate for the weekly diary questions on adequate relief at each month and all months, the adequate relief rate, the number of subjects with adequate relief by week, daily diary questions, IBS-QOL scores, and the interruption of activities were also assessed. Safety was evaluated by physical examination, ECG, vital signs, laboratory evaluations, concomitant medications, and AEs.

Description for clinical: The effect of renal impairment on the pharmacokinetics of cilansetron was evaluated in a study excluding subjects with end-stage renal disease, and utilizing a single-center, open-label, multiple-dose, parallel group study in 13 male and 9 female subjects, aged 33-74 years. […] Healthy subjects were matched to renally-impaired subjects with respect to age, weight, gender, and smoking status. All subjects received oral cilansetron 2 mg TID on Days 1 to 5, and a single dose on the morning of Day 6. Blood samples for measurement of plasma pharmacokinetics of cilansetron and its 4-hydroxy metabolites were collected up to 24 hours following dosing on Day 6, and log-transformed pharmacokinetic parameters for these analytes were statistically compared between study groups. Serum concentrations of unbound cilansetron and its 4-hydroxy metabolites were also measured prior to dosing and at 1 and 1.5 hours postdose on Day 6.

As to `Cc1nccn1C[C@H]1CCc2c(c3cccc4c3n2CCC4)C1=O` [Cilansetron, (R)-(−)-4,5,6,8,9,10-hexahydro-10-[(2-methyl-1H-imidazol-1-yl)methyl]-11H-pyrido-[3,2,1-jk]-carbazol-11-one], the “In vivo chiral inversion to KC9945” value is “no in vivo chiral inversion”. Further, in the series “clinical” (Tmax), the Tmax was found to be 1 h. The half-life in the series “clinical” (T½) was 2.85 h. Also, the “Number of subjects who died during the three-month treatment period” value in series [1] (2 mg TID, 388 randomized, S241.3.011) is recorded as 1 (<1) n (%). For the same compound, the Constipation in series [1] (female, human, in vivo, 3 months) is on record as 26%. Further, in series [1] (human, in vivo), the “Fecal occult blood positive and/or blood in stool” value amounted to 7%. For the same compound, in series [1] (human, in vivo, 3 months), the Abdominal distension was 5%, the “Abdominal pain NOS” value is given as 6%, the Abdominal pain upper turned out to be 2% and the Constipation stood at 20%. Also, in series [1] (human, in vivo, 3 months), the Flatulence was determined as 4%, the “Serious AEs” value was 2% and the “Subjects with at least one TEAE” value turned out to be 69%. The “At least one TEAE, entire four-month period” value in series [1] (human, in vivo, 4 months) worked out at 78%. Further, the “TEAEs leading to permanent discontinuation” value in series [1] (in vivo) is reported as “Eleven”. The Constipation in series [1] (male, human, in vivo, 3 months) came to 8%.

A word on the Tmax: it is the time at which the peak concentration occurs. One may read the half-life as the time in which the quantity being followed falls by half.
